From US20230364084A1, “METHODS FOR PREVENTING OR TREATING CONDITIONS RELATED TO PIKFYVE ACTIVITY” (The Regents of the University of Michigan, priority 2020, published 2023)

How the values were obtained:
[1] = system: prostate cancer cell lines; assay: cell cycle analysis; format: cell-based, human
Method: Cells were seeded in 6-well plates and treated with various drugs for 72 hours. Single cells were fixed with 70% ethanol, stained with propidium iodine, and cell cycle was analyzed by flow cytometry.

[2] = system: invasive prostate cancer cell lines; assay: Matrigel invasion assay; format: cell-based, human; details: four invasive prostate cancer cell lines, 24-hour incubation
Method: 2-5×10^5 cells were seeded onto 8-μm Matrigel-coated fluoroblok transwells with serum-free medium and various concentrations of ESK981. Medium containing 10% FBS in the lower chamber served as a chemoattractant. After 24-hour incubation, invaded cells were stained with […] at 37° C., and fluorescence intensity was quantified with a TECAN M1000 plate reader.

[3] = system: castration-resistant VCaP tumors; assay: castration-resistant VCaP xenograft mouse model; format: in vivo; details: 30 or 60 mg/kg
Method: Four- to six-week old male CB17 severe combined immunodeficiency (SCID) mice were procured from the University of Michigan breeding colony. Subcutaneous tumors were established at both sides of the dorsal flank of mice. Tumors were measured at least biweekly using digital calipers following the formula (π/6) (L×W2), where L=length and W=width of the tumor. At the end of the studies, mice were sacrificed and tumors extracted and weighed. The University of Michigan University Committee on the Use and Care of Animals (UCUCA) approved all in vivo studies. For the VCaP castration-resistant tumor model, 3×10^6 VCaP cells were injected subcutaneously into the dorsal flank on both sides of the mice in serum-free medium with 50% Matrigel (BD Biosciences). Once tumors reached a palpable stage (˜200 mm^3), tumor-bearing mice were castrated. Once tumors grew back to the pre-castration size, mice were randomized and treated with either 30 mg/kg, 60 mg/kg ESK981, or vehicle (ORA-PLUS) by oral gavage 5 days per week. For the DU145 xenograft tumor model, 1×10^6 DU145 cells were injected subcutaneously into the dorsal flank on both sides of the mice in serum-free medium with 50% Matrigel. When tumors reached ˜100 mm^3, tumor-bearing mice were randomized and treated with 30 mg/kg ESK981 or vehicle (ORA-PLUS) by oral gavage 5 days per week.

Atg8 = assay: yeast autophagy detection (Atg8 immunoblot); format: cell-based; details: drug permeable yeast strain (prd5Δ), 3 μM, nitrogen deprivation
Method: The yeast strains used in this study were YAB499 (SEY6210, pho13Δ pho8Δ60, pdr5Δ::Kan). Protein extraction and immunoblot were performed as previously described^59. Antisera to Atg8 and Pgk1 (a generous gift from Dr. Jeremy Thorner, University of California, Berkeley) were used as previously described. Cells were treated with either 3 μM ESK981, 3 μM cabozantinib, or the equivalent amount of DMSO as control for the indicated times.

[4] = system: CXCL10 in VCaP, PC3 and DU145 cells; assay: CXCL10 mRNA by qPCR in the presence of IFNγ; format: cell-based, human; details: PC3 and DU145, 24 hours
Method: Total RNA was extracted from cells or tissue using the miRNeasy mini kit (Qiagen), and cDNA was synthesized from 1 μg total RNA using the High Capacity cDNA Reverse Transcription Kit (Applied Biosystems). qPCR was performed using Fast SYBR Green Master Mix (Applied Biosystems) on the ViiA7 Real-Time PCR System (Applied Biosystems). The target mRNA expression was quantified using the ΔΔCt method and normalized to GAPDH expression. The primer sequences used for the SYBR green qPCR are as follows: […]

Myc-CaP tumors = assay: Myc-CaP syngeneic murine prostate model in FVB mice; format: in vivo, mouse
Method: MYC-driven murine prostate cancer cells (Myc-CaP) were injected at a density of 1×10^6 subcutaneously into both flanks of 4- to 6-week old FVB mice (Charles River Laboratories) in serum-free medium with 50% Matrigel. When tumors reached ˜50 mm^3, tumor-bearing mice were randomized and treated with 15 mg/kg or 30 mg/kg ESK981 or vehicle (ORA-PLUS) by oral gavage 5 days per week. For the ESK981 and anti-PD-1 combination study, 15 mg/kg ESK981 or vehicle were given 5 days per week by oral gavage, while anti-PD-1 (Cat No. BE0146, BioXcell) or isotype control (Cat No. BE0089, BioXcell) were given at 200 μg per mouse 3 times per week by intraperitoneal injection (i.p.). For the ESK981 and anti-CXCR3 combination study, 15 mg/kg ESK981 or vehicle were given 5 days per week by oral gavage, while anti-CXCR3 (Cat No. BE0249, BioXcell) or isotype control (Cat No. BE0091, BioXcell) were given at 100 μg per mouse 3 times per week by i.p. For the shPikfyve study, Myc-CaP shPikfyve cells were injected at a density of 2×10^6 subcutaneously into both flanks of 4- to 6-week old NSG or FVB mice in serum-free medium with 50% Matrigel. When tumors reached 100 mm^3, tumor-bearing mice were randomized and treated with normal diet or doxycycline 625 mg/kg diet (Envigo). For the shPikfyve and anti-PD-1 combination study, Myc-CaP shPikfyve cells were injected at a density of 2×10^6 subcutaneously into both flanks of 4- to 6-week old FVB mice in serum-free medium with 50% Matrigel. When tumors reached 100 mm^3, tumor-bearing mice were randomized and treated with normal diet or doxycycline 625 mg/kg diet for 7 days, and then anti-PD-1 or isotype control were given at 200 μg per mouse 3 times per week in combination with normal or doxycycline diet.

[5] = system: advanced, relapsed, or refractory solid tumors; details: cited from earlier work
VEGFR-2 (KDR) = VEGFR-2 (KDR) (Homo sapiens, UniProt P35968); details: cited from earlier work
Chain of VEGFR-2 (KDR) (P35968 20-1356, species assumed): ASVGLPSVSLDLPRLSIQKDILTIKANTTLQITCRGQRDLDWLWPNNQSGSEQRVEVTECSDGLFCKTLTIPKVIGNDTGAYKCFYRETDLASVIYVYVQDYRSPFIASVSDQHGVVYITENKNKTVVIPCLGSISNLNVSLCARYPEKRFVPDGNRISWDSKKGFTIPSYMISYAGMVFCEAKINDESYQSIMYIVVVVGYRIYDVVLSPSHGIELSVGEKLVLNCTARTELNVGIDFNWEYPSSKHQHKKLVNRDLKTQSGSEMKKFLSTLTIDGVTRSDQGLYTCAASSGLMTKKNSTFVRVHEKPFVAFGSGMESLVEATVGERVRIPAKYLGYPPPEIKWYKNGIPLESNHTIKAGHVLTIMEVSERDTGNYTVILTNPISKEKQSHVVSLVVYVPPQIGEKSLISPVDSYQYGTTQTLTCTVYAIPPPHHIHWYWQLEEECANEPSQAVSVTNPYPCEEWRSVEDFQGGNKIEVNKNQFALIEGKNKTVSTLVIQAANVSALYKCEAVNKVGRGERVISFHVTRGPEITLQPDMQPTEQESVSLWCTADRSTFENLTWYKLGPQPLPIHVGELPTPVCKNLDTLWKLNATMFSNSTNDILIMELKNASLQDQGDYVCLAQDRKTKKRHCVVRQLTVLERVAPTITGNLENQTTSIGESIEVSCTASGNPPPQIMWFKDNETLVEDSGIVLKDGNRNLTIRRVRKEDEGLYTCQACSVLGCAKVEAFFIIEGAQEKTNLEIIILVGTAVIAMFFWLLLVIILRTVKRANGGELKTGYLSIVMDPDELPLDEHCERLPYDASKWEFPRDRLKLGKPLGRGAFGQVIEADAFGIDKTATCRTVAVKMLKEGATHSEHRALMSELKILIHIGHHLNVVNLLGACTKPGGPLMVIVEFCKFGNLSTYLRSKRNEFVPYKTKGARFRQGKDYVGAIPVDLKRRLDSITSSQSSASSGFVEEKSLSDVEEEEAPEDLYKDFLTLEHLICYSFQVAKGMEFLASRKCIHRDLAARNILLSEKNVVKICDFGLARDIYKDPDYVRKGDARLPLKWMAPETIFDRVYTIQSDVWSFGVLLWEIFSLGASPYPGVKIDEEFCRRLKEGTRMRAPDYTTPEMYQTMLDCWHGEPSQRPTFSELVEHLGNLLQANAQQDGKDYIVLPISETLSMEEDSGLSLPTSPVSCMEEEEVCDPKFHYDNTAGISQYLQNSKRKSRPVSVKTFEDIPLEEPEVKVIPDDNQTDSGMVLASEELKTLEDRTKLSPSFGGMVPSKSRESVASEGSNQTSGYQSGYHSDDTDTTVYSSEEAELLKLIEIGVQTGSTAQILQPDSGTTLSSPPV

[6] = 15 mg/kg solo treatment, four weeks

For `CC(C)Cn1c2ccc(Nc3ncccn3)cc2c2c3c(c4c(c21)CCc1nn(C)cc1-4)C(=O)NC3` [ESK981, 13-isobutyl-4-methyl-10-(pyrimidin-2-ylamino)-1,2,4,7,8,13-hexahydro-6H-indazolo[5,4-a]pyrrolo[3,4-c]carbazol-6-one], the cell cycle arrest ([1]; 72 hours, increasing concentrations) was “dose-dependent G2/M phase arrest”, the “G2/M arrest compared with other inhibitors” value ([1]; VCaP cells, ESK981 100 nM vs cabozantinib 5 μM, crizotinib 3 μM, enzalutamide 10 μM) was “greater G2/M arrest potential at a lower concentration” and the invasion [2] was “inhibited invasion in a dose-dependent manner”. The “cell proliferation by Ki67 IHC” value ([3]; five days of treatment) was “dose-dependent reductions”, the tumor weights ([3]; oral gavage) was “dose-dependent reductions” and the “tumor growth of VCaP xenografts” value ([3]; oral gavage, castrated SCID mice, vs vehicle) was “significant dose-dependent growth inhibiton”. The “lipidated Atg8” value (Atg8) was “increase in lipidated Atg8”, the “expression of CXCL10 in the presence of IFNγ” value [4] was “enhance expression of CXCL10” and the “effect of co-treatment on the anti-PD-1 tumor inhibitory effect” value (Myc-CaP tumors; 15 mg/kg ESK981 with anti-PD-1, 6 weeks) was “strongly enhanced”. The “Cd3 mRNA in tumors” value (Myc-CaP tumors; [6]) was “upregulated”, the “Cxcl10 mRNA in tumors” value (Myc-CaP tumors; [6]) was “upregulated” and the “Cd3 mRNA levels in tumors” value (Myc-CaP tumors; 15 mg/kg, 30 mg/kg) was “dose-dependent upregulation”. The “tumor doubling time (progression-free survival)” value (Myc-CaP tumors; 15 mg/kg, 30 mg/kg) was “significantly increased tumor doubling time”, the “average Cxcl10 levels in tumors” value (Myc-CaP tumors; 15 mg/kg, 30 mg/kg, dose-dependent) was “significantly increased” and the tumor growth (Myc-CaP tumors; 15 mg/kg, 30 mg/kg, oral gavage 5 days per week, three weeks) was “dose-dependent growth inhibition”. The “LC3 lipidation in tumors” value (Myc-CaP tumors; 15 mg/kg, five days of treatment) was “elevated LC3 lipidation”, the bioluminescent-negative tumors (Myc-CaP tumors; 30 mg/kg group, day 19) was “five out of ten” and the “CD3+ T cell trafficking in the tumor microenvironment (Cd3 RNA ISH)” value (Myc-CaP tumors; single agents) was “increased”. For the same molecule, the “evaluable patients achieving stable disease” value ([5]; measured at ≥6 weeks of ESK981 treatment) was 51%, the “safety, pharmacokinetic and pharmacodynamic profiles” value ([5]; patients with advanced, relapsed, or refractory solid tumors) was “favorable safety, pharmacokinetic, and pharmacodynamic profiles” and the activity against kinase (VEGFR-2 (KDR)) was “potent activity”.
